Measured values as given in patent publication US5849536A, “Cloning and production of human von willebrand factor GPIb binding domain polypeptides and methods of using same” (Bio-Technology General Corp., priority 1994, dated 1998).

System: rat platelet rich plasma (PRP)
Experiment: vWF-dependent platelet aggregation assay in rat platelet rich plasma
Type: cell-based
Details: ristocetin up to 5.0 mg/ml, no additional agent
Method: This is a standardized von Willebrand Factor (vWF)-dependent aggregation assay using human or rat platelet rich plasma (PRP). The addition of various concentrations of unfractionated Bothrops jararaca venom (BJV), which includes botrocetin and an additional thrombin-like component, or ristocetin results in an aggregatory response in the absence of any additional agent. Using ristocetin (1.5 mg/ml) as the agonist 43 μg/ml VCL abolished the aggregation of human PRP.

Substance: ristocetin
- aggregation of rat PRP induced by the agonist: did not cause measurable aggregation
